Data on ten compounds can be found in PubChem BioAssay (NCI).

Holding throughout (experiment): growth of human tumour cells (NCI), 48 h
Assay [1] concerns A498 renal.
The test system of assay [2] is EKVX NSCLC.
Assay [3] concerns DU-145 prostate.
Assay [4] concerns SK-OV-3 ovarian.
The subject of assay [5] is MCF7 breast.
The test system of assay [6] is TK-10 renal.
For assay [7], the system named is MALME-3M melanoma.
Assay [8] relates to MOLT-4 leukemia.

“And” between values parts separate entries of the source, which are not always exact repeats. Equal values may be shown once.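 Following 48 hours of exposure in 96-well plates, responses at five concentrations were used to interpolate endpoints linearly. Abbreviation: GI50, concentration required for 50% inhibition of growth. TGI denotes the concentration required for complete inhibition of growth.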 Some results are limits rather than exact numbers.

As to `CCOc1ccc2c(c1)C(=O)c1c-2n(CCCN=[N+]=[N-])c(=O)c2cc([N+](=O)[O-])ccc12`, the GI50 is 18.5 µM in assay [1]; 32.5 µM in assay [2]; 3.86 µM in assay [3]; 5.9 µM in assay [4]; 0.0261 µM in assay [5]; 30.8 µM in assay [6]. Moreover, the GI50 is 15.4 µM in assay [7] and 1.96 µM in assay [8]. Further, the TGI in assay [1] was 58.7 µM; in assay [2], above 100 µM; in assay [3], 38.6 µM; in assay [4], 36.2 µM; in assay [5] it was 6.4 µM; in assay [6] it was above 100 µM. In addition, the values for the TGI in assay [7] and in assay [8] were 61.5 µM and 20.8 µM, respectively.

Consider `CN1CCN(CCC=C2c3ccccc3Sc3ccc(S(=O)(=O)N(C)C)cc32)CC1`, for which the GI50 was 2.19 µM and 3.51 µM in assay [1]; 9.15 µM and 13.6 µM in assay [2]; 13 µM and 12.6 µM in assay [3]; 9.22 µM and 13.6 µM in assay [4]; 1.91 µM and 2.81 µM in assay [5]; 2.22 µM and 7.92 µM in assay [6]. The GI50 in assay [7] was 1.73 µM and 2.54 µM; in assay [8], 2.91 µM and 2.22 µM. Besides, the TGI in assay [1] is 13.2 µM and 17 µM; in assay [2] it was > 100 µM and 63.5 µM; in assay [3], > 100 µM and 26.9 µM; in assay [4], 24.7 µM and 30.7 µM; in assay [5], 4 µM and 14 µM; in assay [6] it was 5.05 µM and 23.8 µM. In addition, the TGI was 3.5 µM and 9.72 µM in assay [7]; 7.95 µM and 7.1 µM in assay [8].

In the case of `Cc1[nH]nc(C(=O)N/N=C/c2ccccc2Cl)c1N=NN(C)C`, the TGI in assay [1] was above 100 µM; in assay [2], above 100 µM; in assay [3], above 23.4 µM; in assay [4], above 100 µM; in assay [5], above 100 µM; in assay [6] it was above 100 µM. Moreover, the TGI in assay [7] and in assay [8] was above 100 µM in each case.

In the case of `C[C@]12CC[C@H]3[C@@H](CC[C@]4(O)C[C@@H](O[C@@H]5O[C@H](CO)[C@@H](O[C@@H]6OC[C@@H](O)[C@H](O)[C@H]6O)[C@H](O)[C@H]5O)CC[C@]34C=O)[C@@]1(O)CC[C@@H]2C1=CC(=O)OC1`, the GI50 in assay [1] was 1.23 µM; in assay [2], 0.781 µM; in assay [3] it was 0.902 µM; in assay [4], 1.75 µM; in assay [5], 1.3 µM; in assay [6], 1.19 µM. The GI50 in assay [7] is 1.49 µM; in assay [8], 0.302 µM. Moreover, the TGI stood at 4.5 µM in assay [1]; 1.93 µM in assay [2]; 2.31 µM in assay [3]; 7.69 µM in assay [4]; 7.57 µM in assay [5]; 4.49 µM in assay [6]. For the same compound, the TGI in assay [7] came out at 3.45 µM; in assay [8], 1.82 µM.

For the compound `Cc1c(Cl)c(C)c(Cl)c(O)c1Cl`, the TGI was 68.7 µM in assay [1]; 82.1 µM in assay [2]; above 100 µM in assay [3]; above 100 µM in assay [4]; above 100 µM in assay [5]; 82.3 µM in assay [6]. Further, the TGI was found to be 54.3 µM in assay [7] and 54.5 µM in assay [8].

For `COc1ncc(-c2ccc3nccc(C#CCCCCC(=O)NO)c3c2)cc1NS(=O)(=O)c1ccc(F)cc1F`, the GI50 in assay [1] was 0.0303 µM; in assay [2] it was 0.0569 µM; in assay [3] it was 0.134 µM; in assay [4] it was 0.035 µM; in assay [5], 0.0186 µM; in assay [6] it was 0.0294 µM. The GI50 in assay [7] is 0.0604 µM; in assay [8] it was 0.0622 µM. The TGI in assay [1] came to 0.0962 µM; in assay [2], 4.09 µM; in assay [3] it was 12.6 µM; in assay [4], 0.18 µM; in assay [5], 4.45 µM; in assay [6] it was 1.37 µM. In addition, the TGI in assay [7] is 0.27 µM; in assay [8], 1.42 µM.

`Nc1nc(N)c2c(n1)CCC(S(=O)(=O)c1ccc3ccccc3c1)C2` (centres undefined): the TGI is 40 µM in assay [1]; above 100 µM in assay [2]; above 100 µM in assay [3]; above 100 µM in assay [4]; above 100 µM in assay [5]; 51.4 µM in assay [6]. The TGI in assay [7] came to 42.7 µM; in assay [8] it was 27.2 µM.

`COc1cc2c(cc1OCCCN1CCN(C(=S)SCCC(C#N)(c3ccccc3)c3ccccc3)CC1)N=C[C@@H]1CCCN1C2=O`: the GI50 in assay [1] was 1 µM; in assay [2] it was 2.17 µM; in assay [3], 0.469 µM; in assay [4], 2.52 µM; in assay [5] it was 0.33 µM; in assay [6], 1.09 µM. The GI50 in assay [7] was 0.938 µM; in assay [8] it was 0.375 µM. In addition, the TGI in assay [1] worked out at 2.32 µM; in assay [2] it was 5.27 µM; in assay [4], 6.39 µM; in assay [5] it was 1.53 µM; in assay [6], 2.87 µM; in assay [7], 2.19 µM.

In the case of `C[C@]12CC[C@@H]3c4ccc(OC(=O)N(CCCl)CCCl)cc4CC[C@H]3[C@@H]1CC[C@@H]2OP(=O)(O)O`, the GI50 in assay [1] is 16 µM; in assay [2], 33.2 µM; in assay [3] it was 59.5 µM; in assay [4], 32.7 µM; in assay [5], above 100 µM; in assay [6], above 38.3 µM. The GI50 was 83.5 µM in assay [7] and above 59.3 µM in assay [8]. Besides, the TGI in assay [1] is 42.2 µM; in assay [2], above 100 µM; in assay [3] it was above 100 µM; in assay [4], above 89.2 µM; in assay [5] it was above 100 µM; in assay [6], above 100 µM. For the same compound, the TGI in assay [7] and in assay [8] was above 100 µM in each case.

`CC[C@@H](C)/C=C(C)/C=C/C(=O)c1c(O)c(-c2ccc(O)cc2)cn(OC2CC(=O)CCC(C)OC(=O)CC2O)c1=O` (some centres undefined): the GI50 in assay [1] was 1.98 µM; in assay [2], 1.39 µM; in assay [3], 0.303 µM; in assay [4], 0.463 µM; in assay [5], 0.366 µM; in assay [6], 0.442 µM. The GI50 is 0.305 µM in assay [7] and 0.225 µM in assay [8]. Further, the TGI in assay [1] came out at 24 µM; in assay [2], 12.3 µM; in assay [3], 13.4 µM; in assay [4] it was 35.6 µM; in assay [5], 17 µM; in assay [6] it was 19.9 µM. The values for the TGI in assay [7] and in assay [8] were 6.8 µM and 12.1 µM, respectively.
